± gives the uncertainty stated by the source.
Experiment: xn = mol fraction of the nth substance listed

ClC(Cl)Cl + CC(C)=O
viscosity (293.15 K, 101 kPa, x1 = 0.157): 0.3875 ± 0.01 mPa·s
viscosity (293.15 K, 101 kPa, x1 = 0.362): 0.466 ± 0.012 mPa·s
viscosity (293.15 K, 101 kPa, x1 = 0.483): 0.511 ± 0.014 mPa·s
viscosity (293.15 K, 101 kPa, x1 = 0.609): 0.5471 ± 0.015 mPa·s
viscosity (293.15 K, 101 kPa, x1 = 0.824): 0.5836 ± 0.015 mPa·s
viscosity (293.15 K, 101 kPa, x2 = 0.112): 0.565 ± 0.006 mPa·s
viscosity (293.15 K, 101 kPa, x2 = 0.2): 0.561 ± 0.006 mPa·s
viscosity (293.15 K, 101 kPa, x2 = 0.3098): 0.543 ± 0.006 mPa·s
viscosity (293.15 K, 101 kPa, x2 = 0.415): 0.523 ± 0.005 mPa·s
viscosity (293.15 K, 101 kPa, x2 = 0.502): 0.495 ± 0.005 mPa·s
viscosity (293.15 K, 101 kPa, x2 = 0.6075): 0.456 ± 0.005 mPa·s
viscosity (293.15 K, 101 kPa, x2 = 0.715): 0.421 ± 0.005 mPa·s
viscosity (293.15 K, 101 kPa, x2 = 0.81): 0.384 ± 0.004 mPa·s
viscosity (293.15 K, 101 kPa, x2 = 0.9075): 0.349 ± 0.004 mPa·s
viscosity (293.15 K, 101.33 kPa, x1 = 0.1193): 0.357 ± 0.009 mPa·s
viscosity (293.15 K, 101.33 kPa, x1 = 0.2623): 0.408 ± 0.011 mPa·s
viscosity (293.15 K, 101.33 kPa, x1 = 0.3723): 0.453 ± 0.012 mPa·s
viscosity (293.15 K, 101.33 kPa, x1 = 0.5128): 0.508 ± 0.013 mPa·s
viscosity (293.15 K, 101.33 kPa, x1 = 0.6064): 0.538 ± 0.014 mPa·s
viscosity (293.15 K, 101.33 kPa, x1 = 0.7001): 0.56 ± 0.015 mPa·s
viscosity (293.15 K, 101.33 kPa, x1 = 0.8577): 0.583 ± 0.015 mPa·s
viscosity (293.16 K, 101 kPa, x1 = 0.1193): 0.357 ± 0.01 mPa·s
viscosity (293.16 K, 101 kPa, x1 = 0.2623): 0.408 ± 0.011 mPa·s
viscosity (293.16 K, 101 kPa, x1 = 0.3723): 0.453 ± 0.012 mPa·s
viscosity (293.16 K, 101 kPa, x1 = 0.5128): 0.508 ± 0.014 mPa·s
viscosity (293.16 K, 101 kPa, x1 = 0.6064): 0.538 ± 0.014 mPa·s
viscosity (293.16 K, 101 kPa, x1 = 0.7001): 0.56 ± 0.015 mPa·s
viscosity (293.16 K, 101 kPa, x1 = 0.8577): 0.583 ± 0.015 mPa·s
viscosity (293.35 K, 101 kPa, x1 = 0.75): 0.6037 ± 0.016 mPa·s
viscosity (293.45 K, 101 kPa, x1 = 0.5): 0.5307 ± 0.014 mPa·s
viscosity (298.15 K, 101 kPa, x1 = 0.2): 0.353 ± 0.0052 mPa·s
viscosity (298.15 K, 101 kPa, x1 = 0.4): 0.424 ± 0.0053 mPa·s
viscosity (298.15 K, 101 kPa, x1 = 0.6): 0.486 ± 0.0054 mPa·s
viscosity (298.15 K, 101 kPa, x1 = 0.8): 0.512 ± 0.0054 mPa·s
viscosity (298.15 K, 101 kPa, x2 = 0.0555): 0.5334 ± 0.0055 mPa·s
viscosity (298.15 K, 101 kPa, x2 = 0.112): 0.538 ± 0.006 mPa·s
viscosity (298.15 K, 101 kPa, x2 = 0.1361): 0.5423 ± 0.0055 mPa·s
viscosity (298.15 K, 101 kPa, x2 = 0.2): 0.534 ± 0.006 mPa·s
viscosity (298.15 K, 101 kPa, x2 = 0.2192): 0.5338 ± 0.0055 mPa·s
viscosity (298.15 K, 101 kPa, x2 = 0.2437): 0.536 ± 0.0055 mPa·s
viscosity (298.15 K, 101 kPa, x2 = 0.3023): 0.5258 ± 0.0054 mPa·s
viscosity (298.15 K, 101 kPa, x2 = 0.3098): 0.516 ± 0.005 mPa·s
viscosity (298.15 K, 101 kPa, x2 = 0.3737): 0.508 ± 0.0053 mPa·s
viscosity (298.15 K, 101 kPa, x2 = 0.415): 0.495 ± 0.005 mPa·s
viscosity (298.15 K, 101 kPa, x2 = 0.4585): 0.4864 ± 0.005 mPa·s
viscosity (298.15 K, 101 kPa, x2 = 0.496): 0.4726 ± 0.005 mPa·s
viscosity (298.15 K, 101 kPa, x2 = 0.502): 0.47 ± 0.005 mPa·s
viscosity (298.15 K, 101 kPa, x2 = 0.552): 0.4529 ± 0.0048 mPa·s
viscosity (298.15 K, 101 kPa, x2 = 0.5688): 0.4495 ± 0.0047 mPa·s
viscosity (298.15 K, 101 kPa, x2 = 0.6075): 0.434 ± 0.005 mPa·s
viscosity (298.15 K, 101 kPa, x2 = 0.6721): 0.411 ± 0.0044 mPa·s
viscosity (298.15 K, 101 kPa, x2 = 0.6793): 0.4052 ± 0.0044 mPa·s
viscosity (298.15 K, 101 kPa, x2 = 0.6886): 0.4042 ± 0.0043 mPa·s
viscosity (298.15 K, 101 kPa, x2 = 0.715): 0.402 ± 0.004 mPa·s
viscosity (298.15 K, 101 kPa, x2 = 0.7302): 0.3926 ± 0.0042 mPa·s
viscosity (298.15 K, 101 kPa, x2 = 0.7676): 0.3817 ± 0.0041 mPa·s
viscosity (298.15 K, 101 kPa, x2 = 0.8067): 0.3628 ± 0.004 mPa·s
viscosity (298.15 K, 101 kPa, x2 = 0.81): 0.367 ± 0.004 mPa·s
viscosity (298.15 K, 101 kPa, x2 = 0.8196): 0.3551 ± 0.004 mPa·s
viscosity (298.15 K, 101 kPa, x2 = 0.8757): 0.3425 ± 0.0038 mPa·s
viscosity (298.15 K, 101 kPa, x2 = 0.9075): 0.334 ± 0.004 mPa·s
viscosity (298.15 K, 101 kPa, x2 = 0.9182): 0.3261 ± 0.0037 mPa·s
viscosity (298.15 K, 101 kPa, x2 = 0.9233): 0.3206 ± 0.0037 mPa·s
viscosity (298.15 K, 101 kPa, x2 = 0.963): 0.3092 ± 0.0036 mPa·s
viscosity (298.15 K, 101.33 kPa, x1 = 0.1483): 0.356 ± 0.009 mPa·s
viscosity (298.15 K, 101.33 kPa, x1 = 0.2721): 0.4 ± 0.01 mPa·s
viscosity (298.15 K, 101.33 kPa, x1 = 0.3885): 0.445 ± 0.012 mPa·s
viscosity (298.15 K, 101.33 kPa, x1 = 0.4985): 0.485 ± 0.013 mPa·s
viscosity (298.15 K, 101.33 kPa, x1 = 0.6363): 0.527 ± 0.014 mPa·s
viscosity (298.15 K, 101.33 kPa, x1 = 0.7114): 0.543 ± 0.014 mPa·s
viscosity (298.15 K, 101.33 kPa, x1 = 0.8834): 0.557 ± 0.014 mPa·s
viscosity (298.16 K, 101 kPa, x1 = 0.1483): 0.356 ± 0.01 mPa·s
viscosity (298.16 K, 101 kPa, x1 = 0.2721): 0.4 ± 0.011 mPa·s
viscosity (298.16 K, 101 kPa, x1 = 0.3885): 0.445 ± 0.012 mPa·s
viscosity (298.16 K, 101 kPa, x1 = 0.4985): 0.485 ± 0.013 mPa·s
viscosity (298.16 K, 101 kPa, x1 = 0.6363): 0.527 ± 0.014 mPa·s
viscosity (298.16 K, 101 kPa, x1 = 0.7114): 0.543 ± 0.014 mPa·s
viscosity (298.16 K, 101 kPa, x1 = 0.8834): 0.557 ± 0.015 mPa·s
viscosity (302.95 K, 101 kPa, x1 = 0.25): 0.3982 ± 0.011 mPa·s
viscosity (303.15 K, 101 kPa, x2 = 0.112): 0.512 ± 0.005 mPa·s
viscosity (303.15 K, 101 kPa, x2 = 0.2): 0.507 ± 0.005 mPa·s
viscosity (303.15 K, 101 kPa, x2 = 0.3098): 0.488 ± 0.005 mPa·s
viscosity (303.15 K, 101 kPa, x2 = 0.415): 0.468 ± 0.005 mPa·s
viscosity (303.15 K, 101 kPa, x2 = 0.502): 0.447 ± 0.005 mPa·s
viscosity (303.15 K, 101 kPa, x2 = 0.6075): 0.412 ± 0.004 mPa·s
viscosity (303.15 K, 101 kPa, x2 = 0.715): 0.383 ± 0.004 mPa·s
viscosity (303.15 K, 101 kPa, x2 = 0.81): 0.35 ± 0.004 mPa·s
viscosity (303.15 K, 101 kPa, x2 = 0.9075): 0.322 ± 0.004 mPa·s
viscosity (303.15 K, 101.33 kPa, x1 = 0.1041): 0.326 ± 0.009 mPa·s
viscosity (303.15 K, 101.33 kPa, x1 = 0.1842): 0.352 ± 0.009 mPa·s
viscosity (303.15 K, 101.33 kPa, x1 = 0.2689): 0.381 ± 0.01 mPa·s
viscosity (303.15 K, 101.33 kPa, x1 = 0.3733): 0.424 ± 0.011 mPa·s
viscosity (303.15 K, 101.33 kPa, x1 = 0.5487): 0.488 ± 0.013 mPa·s
viscosity (303.15 K, 101.33 kPa, x1 = 0.6876): 0.514 ± 0.013 mPa·s
viscosity (303.15 K, 101.33 kPa, x1 = 0.8278): 0.54 ± 0.014 mPa·s
viscosity (303.16 K, 101 kPa, x1 = 0.1041): 0.326 ± 0.009 mPa·s
viscosity (303.16 K, 101 kPa, x1 = 0.1842): 0.352 ± 0.009 mPa·s
viscosity (303.16 K, 101 kPa, x1 = 0.2689): 0.381 ± 0.01 mPa·s
viscosity (303.16 K, 101 kPa, x1 = 0.3733): 0.424 ± 0.011 mPa·s
viscosity (303.16 K, 101 kPa, x1 = 0.5487): 0.488 ± 0.013 mPa·s
viscosity (303.16 K, 101 kPa, x1 = 0.6876): 0.514 ± 0.014 mPa·s
viscosity (303.16 K, 101 kPa, x1 = 0.8278): 0.54 ± 0.014 mPa·s
viscosity (303.55 K, 101 kPa, x1 = 0.75): 0.5427 ± 0.014 mPa·s
viscosity (303.65 K, 101 kPa, x1 = 0.5): 0.4779 ± 0.013 mPa·s
viscosity (308.15 K, 101 kPa, x2 = 0.112): 0.487 ± 0.005 mPa·s
viscosity (308.15 K, 101 kPa, x2 = 0.2): 0.482 ± 0.005 mPa·s
viscosity (308.15 K, 101 kPa, x2 = 0.3098): 0.467 ± 0.005 mPa·s
viscosity (308.15 K, 101 kPa, x2 = 0.415): 0.446 ± 0.005 mPa·s
viscosity (308.15 K, 101 kPa, x2 = 0.502): 0.426 ± 0.005 mPa·s
viscosity (308.15 K, 101 kPa, x2 = 0.6075): 0.398 ± 0.004 mPa·s
viscosity (308.15 K, 101 kPa, x2 = 0.715): 0.365 ± 0.004 mPa·s
viscosity (308.15 K, 101 kPa, x2 = 0.81): 0.336 ± 0.004 mPa·s
viscosity (308.15 K, 101 kPa, x2 = 0.9075): 0.312 ± 0.004 mPa·s
viscosity (311.65 K, 101 kPa, x1 = 0.75): 0.5052 ± 0.013 mPa·s
viscosity (313.15 K, 101 kPa, x1 = 0.157): 0.3324 ± 0.009 mPa·s
viscosity (313.15 K, 101 kPa, x1 = 0.25): 0.366 ± 0.0098 mPa·s
viscosity (313.15 K, 101 kPa, x1 = 0.362): 0.394 ± 0.011 mPa·s
viscosity (313.15 K, 101 kPa, x1 = 0.483): 0.4257 ± 0.011 mPa·s
viscosity (313.15 K, 101 kPa, x1 = 0.609): 0.4577 ± 0.012 mPa·s
viscosity (313.15 K, 101 kPa, x1 = 0.824): 0.4867 ± 0.013 mPa·s
viscosity (313.85 K, 101 kPa, x1 = 0.5): 0.4341 ± 0.012 mPa·s
viscosity (321.65 K, 101 kPa, x1 = 0.75): 0.4644 ± 0.012 mPa·s

— the CheMixHub viscosity set
